PMC12390684 (Viruses, 2025)
Square brackets hold non-standard residues; d marks the D form. Peptide text beside a SMILES is read from it. dHica = CC(C)C[C@@H](O)C(=O)O; NMeV = CN[C@H](C(=O)O)C(C)C; NMeA = CN[C@@H](C)C(=O)O; βAla = NCCC(=O)O

Biological target: IN-GCN2 interaction (6xHis-IN / GST-GCN2) (UniProt P04585+Q9P2K8)
Assay: biochemical
Type: binding, HIV-1 IN; human GCN2
Settings: for IN-GCN2 interaction (%): screen, single dose 100 µM, single replicate, residual AlphaLISA signal normalized to DMSO control

Sequence of IN-GCN2 interaction (6xHis-IN / GST-GCN2) (Q9P2K8 192-1024, other chains not shown): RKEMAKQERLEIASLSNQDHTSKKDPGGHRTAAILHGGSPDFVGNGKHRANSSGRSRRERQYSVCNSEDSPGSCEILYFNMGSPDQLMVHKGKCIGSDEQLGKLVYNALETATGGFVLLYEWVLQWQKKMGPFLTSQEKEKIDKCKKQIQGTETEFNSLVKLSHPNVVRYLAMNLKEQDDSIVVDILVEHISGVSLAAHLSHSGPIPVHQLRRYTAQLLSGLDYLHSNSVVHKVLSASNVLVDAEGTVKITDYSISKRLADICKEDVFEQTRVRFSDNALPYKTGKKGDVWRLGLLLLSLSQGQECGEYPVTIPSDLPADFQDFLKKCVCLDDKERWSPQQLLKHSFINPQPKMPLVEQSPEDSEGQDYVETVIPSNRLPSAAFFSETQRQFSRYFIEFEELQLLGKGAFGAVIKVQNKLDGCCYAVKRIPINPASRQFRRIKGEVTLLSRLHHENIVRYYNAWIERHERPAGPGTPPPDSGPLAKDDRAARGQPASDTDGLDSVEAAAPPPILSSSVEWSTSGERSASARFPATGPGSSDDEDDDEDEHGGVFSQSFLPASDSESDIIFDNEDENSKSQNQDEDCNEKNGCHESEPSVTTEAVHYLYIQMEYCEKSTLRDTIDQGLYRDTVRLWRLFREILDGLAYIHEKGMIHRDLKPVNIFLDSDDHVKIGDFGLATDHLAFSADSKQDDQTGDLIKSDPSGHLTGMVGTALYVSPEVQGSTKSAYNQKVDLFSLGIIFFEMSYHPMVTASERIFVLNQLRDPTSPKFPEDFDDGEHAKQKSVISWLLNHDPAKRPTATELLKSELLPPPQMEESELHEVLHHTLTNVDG

Row | SMILES | IN-GCN2 interaction (%) | further results
1 | CO[C@@H]1[C@@H](OC(=O)c2ccc(C)[nH]2)[C@@H](O)[C@H](Oc2ccc3c(O)c(NC(=O)c4ccc(O)c(CC=C(C)C)c4)c(=O)oc3c2Cl)OC1(C)C [NSC227186] | 36.34 | 
2 | CC[C@H](C)[C@@H]1NC(=O)[C@@H]2CCCN2C(=O)[C@@H](CC(C)C)OC(=O)CCNC(=O)[C@H](C)N(C)C(=O)[C@H](C(C)C)N(C)C1=O [NSC236580] (cyclo([dHica]PI[NMeV][NMeA][βAla])) | 98.06 | 
3 | CO/N=C1\CC(C)N2C(=O)C(C(C)C)NC(=O)C(NC(=O)c3c4nc5c(C(=O)NC6C(=O)NC(C(C)C)C(=O)N7C(C)CC(O)C7C(=O)N(C)CC(=O)N(C)C(C(C)C)C(=O)OC6C)ccc(C)c5oc-4c(C)c(=O)c3N)C(CO)OC(=O)C(C)N(C)C(=O)CN(C)C(=O)C12 (stereo not drawn) [NSC237671] | 81.33 | 
4 | CCCCCCCCCC[C@H](C(=O)O)[C@]1(C(=O)O)CCC(=O)O1 [NSC244387] | 146.01 | 
5 | C/C=C\C(C)=C\[C@H](C)C(=O)C[C@H](O)CC1CC(=O)NC(=O)C1 [NSC248958] | 116.00 | 
6 | CC1CC(O)C2C3(C)CCCC2(COC3=O)C12CCC1(CCOC1=O)O2 (stereo not drawn) [NSC250429] | 134.45 | 
7 | COc1c2c(cc3c1C1Oc4c(ccc(O)c4CC=C(C)C)C1CO3)OC(C)(C)C=C2 (stereo not drawn) [NSC250430] | 16.46 | 
8 | C=C1C(=O)[C@]23[C@H](O)[C@H]1CC[C@H]2[C@@]12CO[C@]3(O)[C@@H](O)[C@@H]1C(C)(C)CC[C@@H]2O [NSC250682] | 99.31 | 
9 | CO[C@H]1/C=C\C=C(/C)C(=O)NC2=CC(=O)C(N)=C(C[C@@H](C)C[C@H](OC)[C@H](O)[C@@H](C)/C=C(\C)[C@@H]1OC(N)=O)C2=O [NSC255109] | 108.78 | 
10 | COC1=C2CC(C)CC(OC)C(O)C(C)/C=C(\C)C(OC(N)=O)C(OC)/C=C\C=C(/C)C(=O)NC(=C(/C=N/N3CCOCC3)C1=O)C2=O (stereo not drawn) [NSC255112] | 78.82 | 
11 | COc1ccc(CC2C(=O)NC(C)C(=O)N(C)C3C(=O)N(C)C(Cc4ccc(O)c(c4)Oc4ccc(cc4)C3O)C(=O)NC(C)C(=O)NC(C)C(=O)N2C)cc1 (stereo not drawn) [NSC259968] | 109.81 | 
12 | CCCCCC[C@@H]([C@@H](C)O)n1cnc2c(N)ncnc21 [NSC263164] | 111.18 | 
13 | CCC1(O)CC(OC2CC(N(C)C)C(OC3CC(O)C(OC4CC(O)C(O)C(C)O4)C(C)O3)C(C)O2)c2c(cc3c(c2O)C(=O)c2c(O)ccc(O)c2C3=O)C1C(=O)OC (stereo not drawn) [NSC265211] | 39.6 | IC50 (IC50, inhibition of IN-GCN2 interaction, SAR study, fresh dilutions from powder, at least three independent experiments): > 100 µM; inhibition at 100 µM (read-out: inhibition of IN-GCN2 interaction): ~60%; IN-GCN2 interaction (%) (listed as 265211): 39.59%
14 | COC1C(C)OC(OC2CC(C)(O)Cc3cc4c(c(O)c32)C(=O)c2c(O)cc3c(c2C4=O)OC2OC3(C)C(O)C(N(C)C)C2O)C(OC)C1(C)OC (stereo not drawn) [NSC265450] | 99.51 | 
15 | O=C1C=C[C@H](O)[C@@]2(CO)O[C@@H]12 [NSC266032] | 108.08 | 
16 | CC(=O)OC1C(OC(C)=O)C2C(C)CC3OC(=O)C(C)C3CC2(C)C1OC(C)=O (stereo not drawn) [NSC266071] | 100.86 | 
17 | O=C1N[C@@H]2C(=C[C@H](O)[C@@H](O)[C@H]2O)c2cc3c(c(O)c21)OCO3 [NSC266535] | 138.97 | 
18 | CC(=O)O[C@@H]1C[C@H]2O[C@@H]3C=C(C)CC[C@]3(C)[C@]1(C)[C@]21CO1 [NSC267023] |  | effect on IN-GCN2 interaction in dose-response, in words (dose-response assessment): inactive
19 | CO[C@@H]1C[C@](C)(O)Cc2cc3c(c(O)c21)C(=O)c1c(O)cc2c(c1C3=O)O[C@@H]1O[C@@]2(C)[C@H](O)[C@@H](N(C)C)[C@@H]1O [NSC269148] | 113.29 | 
20 | CC(=O)O[C@@H]1[C@@H](O)C2=C3[C@]4(C)[C@@H]1C(C)(C)C(=O)C[C@@H]4[C@]3(O)[C@H](OC(C)=O)[C@@]1(C[C@@H]1C)C2=O [NSC270914] | 122.29 | 
21 | Cc1c(N)nc([C@H](CC(N)=O)NC[C@H](N)C(N)=O)nc1C(=O)N[C@H](C(=O)N[C@H](C)[C@@H](O)[C@H](C)C(=O)N[C@H](C(=O)NCCc1nc(-c2nc(C(=O)NCCCN[C@@H](C)c3ccccc3)cs2)cs1)[C@@H](C)O)[C@@H](O[C@@H]1O[C@@H](CO)[C@@H](O)[C@H](O)[C@@H]1O[C@H]1O[C@H](CO)[C@@H](O)[C@H](OC(N)=O)[C@@H]1O)c1cnc[nH]1 [NSC276382] | 37.70 | 
22 | C[C@@H](N)C(=O)NC(CO)C(O)C(N)C=O.Cl (stereo partly drawn) [NSC278619] | 77.59 | 
23 | CC[C@H](C)C(=O)O[C@H]1CCC=C2C=C[C@H](C)[C@H](CC[C@@H]3C[C@@H](O)CC(=O)O3)[C@H]21 [NSC281245] | 54.75 | 
24 | CCCCCCCCCCCCCCCCCCOCC(O)CO (stereo not drawn) [NSC284200] | 138.26 | 
25 | CC1(C)C[C@]23[C@@H]4COC(=O)[C@H]2CC[C@H]1[C@@H]3CC4=O [NSC284437] | 100.65 | 
26 | C=C(NC(=O)C(=C)NC(=O)c1csc(C2=N[C@@H]3c4csc(n4)[C@H]4NC(=O)c5csc(n5)[C@H]([C@](C)(O)[C@@H](C)O)NC(=O)[C@H]5CSC(=N5)/C(=C/C)NC(=O)[C@H]([C@@H](C)O)NC(=O)c5csc(n5)[C@]3(CC2)NC(=O)[C@H](C)NC(=O)C(=C)NC(=O)C(=C)NC(=O)[C@H](C(C)C)N[C@@H]2C=Cc3c([C@H](C)O)cc(nc3[C@H]2O)C(=O)O[C@@H]4C)n1)C(N)=O [NSC285116] | 79.00 | 

Row | SMILES | IN-GCN2 interaction (%) | further results
27 | C[C@]12C(=O)C=CCC1=CC[C@@H]1[C@@H]2CC[C@]2(O)C(=O)O[C@@]3(C)[C@H]4C[C@]5(C)[C@@H](CO[C@@]16O[C@@]32[C@H]5C6=O)C(=O)O4 [NSC287088] | 131.80 | 
28 | COc1cc2cc(c1Cl)N(C)C(=O)C[C@H](OC(=O)C(C)C)[C@]1(C)O[C@H]1[C@H](C)[C@@H]1C[C@@](O)(NC(=O)O1)[C@H](OC)/C=C/C=C(\C)C2 [NSC292222] | 93.28 | 
29 | CO[C@@H]1C[C@@H](C[C@H]2CC[C@H](C)[C@H]([C@@H](C)C(=O)[O-])O2)O[C@]2(O[C@](C)([C@H]3CC[C@@](C)([C@@H]4O[C@@H]([C@H]5O[C@@](O)(CO)[C@H](C)C[C@@H]5C)C[C@@H]4C)O3)C[C@H]2C)[C@@H]1C.[Na+] [NSC292567] | 95.66 | 
30 | CC(=O)OC1C2(CC3N4C(=O)C5(CO)SSC4(CC31O)C(=O)N5C)OC(C)C(C)(C)C2=O (stereo not drawn) [NSC294408] | 104.55 | 
31 | C=C1C(=O)O[C@@H]2/C=C(/CO)CC/C=C(/CO)C[C@@H](OC(=O)C(C)C)[C@@H]12 [NSC295426] | 56.21 | 
32 | CC(=O)Oc1ccc2ccc(=O)oc2c1OC(C)=O [NSC301683] | 152.96 | 
33 | C=C1C(=O)O[C@@H]2C[C@@]3(C)CCC[C@H](C)C3=C[C@H]12 [NSC302289] | 117.43 | 
34 | C=C1C(=O)C2=CC1CCC(=O)C1(C)CCC(OC(C)=O)C(C)(C)C1CC2O (stereo not drawn) [NSC302979] | 105.64 | 
35 | C=C1[C@@H](C)[C@H]2[C@H](Cc3ccccc3)NC(=O)C23[C@H](OC(C)=O)/C=C/[C@@](C)(O)C[C@@H](C)C/C=C/[C@H]3[C@@H]1O (stereo partly drawn) [NSC305222] | 109.95 | 
36 | COc1c2c(c(CC=C(C)C)c3oc(=O)c(-c4ccc(O)cc4)c(O)c13)OC(C)(C)C=C2 [NSC307981] | 101.87 | 
37 | CO[C@@H]1/C=C/C=C(\C)Cc2cc(O)c(Cl)c(c2)N(C)C(=O)C[C@H](OC(=O)C(C)C)[C@]2(C)O[C@H]2[C@H](C)[C@@H]2C[C@@]1(O)NC(=O)O2 [NSC314018] | 97.15 | 
38 | Nc1ncnc2c1ncn2[C@@H]1C=C(CO)[C@@H](O)[C@H]1O [NSC316458] | 111.58 | 
39 | COc1cc2c(c(OC)c1OC)-c1ccc(SC)c(=O)cc1[C@@H](NC(=O)C(F)(F)F)CC2 [NSC320301] | 97.92 | 
40 | C[C@H](N)C(=O)N[C@@H]1[C@H]2C(=C(O)C[C@@H](O)[C@@H]2O)C(=O)O[C@]1(C)C(Cl)Cl [NSC325014] | 94.06 | 
41 | CC(O)C1/C=C/C=C/C(=O)OC2CC3OC4C5OC5(C)C(O)CC4(COC(=O)C(O)C(C)CCO1)C2(C)C31CO1 (stereo not drawn) [NSC327993] | 115.91 | 
42 | CC1CCOC(=O)/C=C/C=C/C(=O)OC2CC3OC4C5OC5(C)C(O)CC4(COC(=O)C1O)C2(C)C31CO1 (stereo not drawn) [NSC328166] | 102.91 | 
43 | CC(=O)O[C@@H]1[C@@H](O)[C@H](O[C@H]2[C@H](OC(=O)[C@H]3CC[C@H]4[C@@H](C3)O[C@@]3(C[C@H](OC(=O)/C=C/c5ccccc5)[C@H](C)CO3)[C@]43CO3)O[C@H](C)[C@@H](O)[C@@H]2OC(C)=O)O[C@H](C)[C@H]1O [NSC328426] | 91.16 | 
44 | COC1CC(C)C(OC)c2cc(O)cc(c2O)NC(=O)/C(C)=C\C=C/C(C)C(OC(N)=O)/C(C)=C\C(C)C1OC (stereo not drawn) [NSC330500] | 77.16 | 
45 | CC(=O)O[C@H]1C(=O)[C@@]2(C)[C@H]([C@H](OC(=O)c3ccccc3)[C@]3(O)C[C@H](O)C(C)=C1C3(C)C)[C@]1(OC(C)=O)CO[C@@H]1C[C@@H]2O [NSC330753] | 109.90 | 
46 | Nc1ncnc2c1ncn2C1OCC(O)C1O (stereo not drawn) [NSC330917] | 127.88 | 
47 | CCCn1cc2c3c(cccc31)[C@H]1C[C@@H](C)CN(C)[C@@H]1C2.O=C(O)C(O)C(O)C(=O)O [NSC332294] | 41.41 | 
48 | CO[C@@H](/C(C)=C/C=C/C(C)=C/c1coc(C)n1)[C@@H](C)[C@@H]1C[C@H](O)[C@@]2(C)O[C@@H]2/C=C/[C@@H](C)[C@H]2C[C@H](CC(=O)O2)C[C@@H]2O[C@H]2C(=O)O1 [NSC332598] | 94.06 | 
49 | C[C@@H]1C(=O)C[C@H]2C(C)(C)CCC[C@]2(C)[C@@]1(O)CCc1ccoc1 [NSC332876] | 44.59 | 
50 | COC(=O)NC1C(C)OC(OC2C/C=C(/C)C3C=CC4C(OC5CC(OC6CCC(OC7CC(O)C(OC8CCC(O)C(C)O8)C(C)O7)C(C)O6)C(OC(C)=O)C(C)O5)C(C)CC(C)C4C3(C)/C(O)=C3/C(=O)OC4(CC(C=O)=CC(O)C4/C=C\2C)C3=O)CC1(C)[N+](=O)[O-] (stereo not drawn) [NSC333856] | 110.41 | 
51 | COc1cc2c(c(OC)c1O)-c1ccc(OC)c(=O)cc1[C@@H](NC(=O)C(F)(F)F)CC2 [NSC335989] | 89.57 | 
